Test results reported in PMC6627067, “Probing Multi-Target Action of Phlorotannins as New Monoamine Oxidase Inhibitors and Dopaminergic Receptor Modulators with the Potential for Treatment of Neuronal Disorders” (Marine Drugs, 2019).
Several values for one entry are separate records, joined by “and”; a condition that tells them apart may be missing. Equal values may be shown once. Read-outs that look alike come from different tables or passages of the source.

Tests used:
hD4 (DRD4) = biological target: T1, hD4 (DRD4) (Homo sapiens, UniProt P21917); conditions: for % Stimulation of control agonist response, hD4: agonist effect at 100 µM; for inhibition at 100 µM: read-out: % Inhibition of control agonist response, hD4
T1 sequence (P21917 1-419): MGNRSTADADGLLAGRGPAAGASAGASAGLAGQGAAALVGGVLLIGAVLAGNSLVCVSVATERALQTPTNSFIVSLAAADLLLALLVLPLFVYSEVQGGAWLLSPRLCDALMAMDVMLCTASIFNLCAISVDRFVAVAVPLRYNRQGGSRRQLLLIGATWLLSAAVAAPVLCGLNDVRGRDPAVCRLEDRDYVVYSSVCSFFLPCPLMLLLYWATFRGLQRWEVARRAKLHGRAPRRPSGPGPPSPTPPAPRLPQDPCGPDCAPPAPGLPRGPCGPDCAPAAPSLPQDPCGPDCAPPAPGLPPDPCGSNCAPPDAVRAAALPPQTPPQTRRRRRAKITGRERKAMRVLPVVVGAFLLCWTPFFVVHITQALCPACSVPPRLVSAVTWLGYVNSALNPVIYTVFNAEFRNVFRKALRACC

hNK1 (TACR1) = hNK1 (TACR1) (Homo sapiens, UniProt P25103); assay: GPCR cell-based functional assay, intracellular Ca2+ level, NK1; conditions: for % Stimulation of control agonist response, hNK1: agonist effect at 100 µM; for inhibition at 100 µM: antagonist effect at 100 µM, read-out: % Inhibition of control agonist response, hNK1
Chain of hNK1 (TACR1) (P25103 whole entry): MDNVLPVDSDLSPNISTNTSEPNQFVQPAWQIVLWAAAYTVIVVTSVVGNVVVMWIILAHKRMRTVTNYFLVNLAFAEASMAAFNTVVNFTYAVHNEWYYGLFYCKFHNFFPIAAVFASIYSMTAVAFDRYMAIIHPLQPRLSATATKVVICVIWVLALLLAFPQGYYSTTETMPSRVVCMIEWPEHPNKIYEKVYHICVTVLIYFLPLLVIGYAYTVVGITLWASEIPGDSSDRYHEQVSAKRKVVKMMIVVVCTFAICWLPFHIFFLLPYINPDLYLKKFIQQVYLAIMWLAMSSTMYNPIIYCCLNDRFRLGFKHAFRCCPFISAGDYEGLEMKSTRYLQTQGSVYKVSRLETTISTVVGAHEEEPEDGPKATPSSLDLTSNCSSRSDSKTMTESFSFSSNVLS

hV1A (AVPR1A) = hV1A (AVPR1A) (Homo sapiens, UniProt P37288); assay: GPCR cell-based functional assay, intracellular Ca2+ level, V1A; conditions: for % Stimulation of control agonist response, hV1A: agonist effect at 100 µM; for inhibition at 100 µM: antagonist effect at 100 µM, read-out: % Inhibition of control agonist response, hV1A
Chain of hV1A (AVPR1A) (P37288 whole entry): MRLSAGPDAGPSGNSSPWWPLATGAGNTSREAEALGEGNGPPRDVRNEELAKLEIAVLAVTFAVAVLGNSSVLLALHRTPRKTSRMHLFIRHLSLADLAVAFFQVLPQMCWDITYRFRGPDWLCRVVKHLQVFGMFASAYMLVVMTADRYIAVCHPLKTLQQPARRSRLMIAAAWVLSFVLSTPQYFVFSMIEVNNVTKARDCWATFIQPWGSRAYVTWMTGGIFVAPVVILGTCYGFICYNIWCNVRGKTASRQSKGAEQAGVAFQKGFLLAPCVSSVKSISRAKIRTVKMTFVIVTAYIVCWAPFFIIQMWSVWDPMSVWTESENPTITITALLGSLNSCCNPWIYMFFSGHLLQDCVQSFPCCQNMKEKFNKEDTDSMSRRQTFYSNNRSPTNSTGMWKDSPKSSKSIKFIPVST

hMAO-B [1] = biological target: T2, hMAO-B (Homo sapiens, UniProt P27338); parameters: method as in PMID 28251489; conditions: cited from earlier work
T2 sequence (P27338 1-520): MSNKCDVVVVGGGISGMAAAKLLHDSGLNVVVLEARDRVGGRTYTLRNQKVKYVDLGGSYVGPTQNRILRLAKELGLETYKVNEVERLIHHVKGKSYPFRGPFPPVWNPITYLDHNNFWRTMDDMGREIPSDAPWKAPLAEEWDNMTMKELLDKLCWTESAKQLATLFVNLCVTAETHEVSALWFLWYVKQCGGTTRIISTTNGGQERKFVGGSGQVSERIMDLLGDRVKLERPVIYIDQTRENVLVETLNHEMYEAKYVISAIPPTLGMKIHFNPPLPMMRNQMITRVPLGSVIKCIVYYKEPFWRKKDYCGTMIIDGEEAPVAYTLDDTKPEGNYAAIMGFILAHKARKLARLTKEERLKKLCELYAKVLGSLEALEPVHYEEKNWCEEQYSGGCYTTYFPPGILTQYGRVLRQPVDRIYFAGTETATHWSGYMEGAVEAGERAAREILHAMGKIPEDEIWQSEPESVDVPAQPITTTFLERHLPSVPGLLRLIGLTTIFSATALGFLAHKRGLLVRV

hM5 (CHRM5) = biological target: T3, hM5 (CHRM5) (Homo sapiens, UniProt P08912); assay: GPCR cell-based functional assay, intracellular Ca2+ level, M5; conditions: for % Stimulation of control agonist response, hM5: agonist effect at 100 µM; for inhibition at 100 µM: antagonist effect at 100 µM, read-out: % Inhibition of control agonist response, hM5
T3 sequence (P08912 1-532): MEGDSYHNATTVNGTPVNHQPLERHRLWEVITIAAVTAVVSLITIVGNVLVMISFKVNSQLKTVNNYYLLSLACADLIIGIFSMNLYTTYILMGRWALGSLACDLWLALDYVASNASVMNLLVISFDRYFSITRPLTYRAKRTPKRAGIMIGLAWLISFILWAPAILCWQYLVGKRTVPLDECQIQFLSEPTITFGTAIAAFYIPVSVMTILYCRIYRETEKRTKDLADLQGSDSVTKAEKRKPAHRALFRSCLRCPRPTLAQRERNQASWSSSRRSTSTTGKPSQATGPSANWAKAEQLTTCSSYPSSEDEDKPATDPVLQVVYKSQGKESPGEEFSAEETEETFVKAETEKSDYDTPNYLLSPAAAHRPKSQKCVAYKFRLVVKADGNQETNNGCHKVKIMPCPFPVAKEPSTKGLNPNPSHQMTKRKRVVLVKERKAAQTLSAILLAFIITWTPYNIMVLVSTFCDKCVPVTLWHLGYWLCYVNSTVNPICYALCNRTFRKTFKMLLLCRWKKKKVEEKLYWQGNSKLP

hD3 (DRD3) [2] = biological target: T4, hD3 (DRD3) (Homo sapiens, UniProt P35462); conditions: for % Stimulation of control agonist response, hD3: agonist effect at 100 µM
T4 sequence (P35462 whole entry): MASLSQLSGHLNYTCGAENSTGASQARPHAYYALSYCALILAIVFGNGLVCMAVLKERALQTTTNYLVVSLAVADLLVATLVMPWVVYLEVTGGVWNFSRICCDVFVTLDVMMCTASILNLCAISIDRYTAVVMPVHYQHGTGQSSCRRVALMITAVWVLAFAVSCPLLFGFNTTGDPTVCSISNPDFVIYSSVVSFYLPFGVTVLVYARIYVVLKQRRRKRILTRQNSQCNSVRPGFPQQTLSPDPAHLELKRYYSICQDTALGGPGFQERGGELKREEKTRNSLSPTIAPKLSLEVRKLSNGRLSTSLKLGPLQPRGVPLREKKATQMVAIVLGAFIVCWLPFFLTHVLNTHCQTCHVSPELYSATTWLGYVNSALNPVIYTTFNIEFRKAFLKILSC

hD1 (DRD1) [3] = biological target: T5, hD1 (DRD1) (Homo sapiens, UniProt P21728); assay: cell-based; conditions: read-out: % Inhibition of control agonist response, hD1
T5 sequence (P21728 whole entry): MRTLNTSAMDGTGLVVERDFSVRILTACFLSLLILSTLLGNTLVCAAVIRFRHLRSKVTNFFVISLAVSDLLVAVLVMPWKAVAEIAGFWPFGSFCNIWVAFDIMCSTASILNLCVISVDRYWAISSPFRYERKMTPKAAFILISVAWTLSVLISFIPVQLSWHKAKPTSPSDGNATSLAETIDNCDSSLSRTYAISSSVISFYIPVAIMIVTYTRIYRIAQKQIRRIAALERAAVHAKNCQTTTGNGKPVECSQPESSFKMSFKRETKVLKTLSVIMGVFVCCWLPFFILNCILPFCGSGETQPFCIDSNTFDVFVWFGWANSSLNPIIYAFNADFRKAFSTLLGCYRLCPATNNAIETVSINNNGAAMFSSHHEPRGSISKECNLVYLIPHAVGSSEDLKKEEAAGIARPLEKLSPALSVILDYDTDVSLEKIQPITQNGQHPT

hD1 (DRD1) [4] = biological target: T5, hD1 (DRD1); conditions: agonist effect at 100 µM
hMAO-A [5] = biological target: T6, hMAO-A (Homo sapiens, UniProt P21397); parameters: method as in PMID 28251489; conditions: cited from earlier work
T6 sequence (P21397 1-527): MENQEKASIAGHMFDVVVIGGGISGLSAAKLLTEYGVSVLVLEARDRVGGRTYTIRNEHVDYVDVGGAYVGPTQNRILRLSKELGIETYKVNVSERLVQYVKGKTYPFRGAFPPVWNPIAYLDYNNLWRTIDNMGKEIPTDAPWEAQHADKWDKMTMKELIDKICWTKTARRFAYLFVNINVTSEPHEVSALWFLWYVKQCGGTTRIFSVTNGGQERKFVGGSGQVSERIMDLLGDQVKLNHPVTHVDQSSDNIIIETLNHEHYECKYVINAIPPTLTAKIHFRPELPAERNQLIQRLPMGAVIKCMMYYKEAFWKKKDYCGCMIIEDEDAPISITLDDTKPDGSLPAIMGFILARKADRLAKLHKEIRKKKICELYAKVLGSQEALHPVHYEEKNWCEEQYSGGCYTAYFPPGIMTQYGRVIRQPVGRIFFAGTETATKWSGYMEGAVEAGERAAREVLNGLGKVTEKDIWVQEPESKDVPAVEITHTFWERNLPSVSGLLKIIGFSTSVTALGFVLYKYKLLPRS

hD3 (DRD3) [6] = biological target: T4, hD3 (DRD3); assay: cell-based; conditions: for inhibition at 100 µM: read-out: % Inhibition of control agonist response, hD3
h5-HT1A (HTR1A) = biological target: T7, h5-HT1A (HTR1A) (Homo sapiens, UniProt P08908); assay: GPCR cell-based functional assay, intracellular Ca2+ level, 5-HT1A; conditions: for % Stimulation of control agonist response, h5-HT1A: agonist effect at 100 µM; for inhibition at 100 µM: antagonist effect at 100 µM, read-out: % Inhibition of control agonist response, h5-HT1A
T7 sequence (P08908 1-422): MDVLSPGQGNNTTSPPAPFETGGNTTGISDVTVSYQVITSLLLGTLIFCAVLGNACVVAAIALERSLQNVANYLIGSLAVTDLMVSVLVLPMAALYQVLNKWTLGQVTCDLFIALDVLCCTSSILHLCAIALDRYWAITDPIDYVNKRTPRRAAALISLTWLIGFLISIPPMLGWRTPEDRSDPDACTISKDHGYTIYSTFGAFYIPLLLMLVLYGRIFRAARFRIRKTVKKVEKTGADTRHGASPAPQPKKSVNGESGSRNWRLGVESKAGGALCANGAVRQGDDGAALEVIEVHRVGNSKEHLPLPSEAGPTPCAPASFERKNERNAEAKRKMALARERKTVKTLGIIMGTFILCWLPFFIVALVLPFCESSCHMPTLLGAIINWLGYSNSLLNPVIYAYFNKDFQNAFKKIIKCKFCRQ

[7] = parameters: method as in PMID 25996411; conditions: cited from earlier work
hMAO-B [8] = biological target: T2, hMAO-B; assay: hMAO-B inhibition, chemiluminescent MAO-Glo assay and kinetic analysis; assay type: biochemical; conditions: for IC50 / IC50 hMAO-B: recombinant hMAO-B, mean ± SD, n = 3
hMAO-A [9] = biological target: T6, hMAO-A; assay: hMAO-A inhibition, chemiluminescent MAO-Glo assay and kinetic analysis; assay type: biochemical
[10] = ratio of hMAO-A IC50/hMAO-B IC50
[11] = recombinant hMAO-A, mean ± SD, n = 3
[12] = Kiu from secondary plot of 1/Vmaxapp versus concentration
[13] = Lineweaver-Burk plots, NC = noncompetitive
[14] = recombinant hMAO-A, mean ± SD, n = 3, read-out: IC50 hMAO-A
[15] = concentration-dependent stimulation, mean ± SD

SMILES | EC50 (hD4 (DRD4)) [µM] | % Stimulation of control agonist response, hD4 (hD4 (DRD4)) | inhibition at 100 µM (hD4 (DRD4)) [%] | % Stimulation of control agonist response, hNK1 (hNK1 (TACR1)) | inhibition at 100 µM (hNK1 (TACR1)) [%] | % Stimulation of control agonist response, hV1A (hV1A (AVPR1A)) | inhibition at 100 µM (hV1A (AVPR1A)) [%] | % Stimulation of control agonist response, hM5 (hM5 (CHRM5)) | inhibition at 100 µM (hM5 (CHRM5)) [%] | % Stimulation of control agonist response, hD3 (hD3 (DRD3) [2]) | inhibition at 100 µM (hD1 (DRD1) [3]) [%] | % Stimulation of control agonist response, hD1 (hD1 (DRD1) [4]) | EC50 (hD3 (DRD3) [6]) [µM] | inhibition at 100 µM (hD3 (DRD3) [6]) [%] | % Stimulation of control agonist response, h5-HT1A (h5-HT1A (HTR1A)) | inhibition at 100 µM (h5-HT1A (HTR1A)) [%] | IC50 (hMAO-B [8]) [µM] | IC50 hMAO-B (hMAO-B [8]) | IC50 hMAO-A (hMAO-A [9]; [11]) | IC50 (hMAO-A [9]; [14]) [µM] | other results
Oc1cc(O)cc(Oc2c(O)cc(O)c3c2Oc2c(O)cc(Oc4c(O)cc(Oc5c(O)cc(O)c6c5Oc5c(O)cc(O)cc5O6)cc4O)cc2O3)c1 [Dieckol, dieckol] | 34 ± 8.62 | 74.43 ± 6.37 ^B % | -5.35 | 54.70 ± 1.41 ^B % | 77.7 | 64.20 ± 0.14 ^A % | 46.2 | 7.60 ± 17.11 ^AB % | 19.6 | 81.10 ± 0.66 ^B % | 60.6 | 1.05 ± 0.21 ^A % | 44.2 ± 3.25 | -2.5 | 1.75 ± 0.64 ^A % | 76.8 | – | – | – | – | % Stimulation of control agonist response, hD4 (hD4 (DRD4); listed as dieckol): 74.43 ± 6.37%; % Stimulation of control agonist response, hNK1 (hNK1 (TACR1); listed as dieckol): 54.70%; % Stimulation of control agonist response, hV1A (hV1A (AVPR1A); listed as dieckol): 64.20 ± 0.14% and 64.2%; Ki (hMAO-B [1]): 18.5 µM; IC50 (hMAO-B [1]; recombinant hMAO-B, obtained from the literature): 43.4 ± 0.73 µM; % Stimulation of control agonist response, hD3 (hD3 (DRD3) [2]; listed as dieckol): 81.10 ± 0.66%; Ki (hMAO-A [5]): 20.3 µM; SI (selective index) (hMAO-A [5]; [10]): 0.26; IC50 (hMAO-A [5]; recombinant hMAO-A, obtained from the literature): 11.4 ± 1.06 µM; BBB penetration [7]: effectively penetrate the BBB
Oc1cc(O)c2oc3cc(O)c4oc5cc(O)cc(O)c5oc4c3oc2c1 [Dioxinodehydroeckol, dioxinodehydroeckol] | – | – | – | – | – | – | – | – | – | – | – | – | – | – | – | – | > 300 | no inhibitory activity | no inhibitory activity | – | IC50 (hMAO-A [9]): > 300 µM
FC(F)(F)c1cc(CO[C@H]2CCCN[C@H]2c2ccccc2)cc(C(F)(F)F)c1 [L-733,060, reference compound] | – | – | – | – | – | – | – | – | – | – | – | – | – | – | – | – | – | – | – | – | IC50 (hNK1 (TACR1); positive control, read-out: IC50 of standard antagonist, hNK1): 0.0016 µM
Oc1cc(O)cc(Oc2c(O)cc(O)c3c2Oc2c(O)cc4oc5c(Oc6cc(O)cc(O)c6)c(O)cc(O)c5c4c2O3)c1 [PFF-A, phlorofucofuroeckol-A] | 23.5 ± 1.55 | 98.50 ± 12.50% and 98.50 ± 12.50 ^A % | -26.1 | 67.65 ± 9.26 ^A % | 88.2 | 38.45 ± 7.14 ^B % | 52.9 | 29.20 ± 10.75 ^A % | 56 | 98.57 ± 2.14% and 98.57 ± 2.14 ^A % | 81.4 | 0.25 ± 3.18 ^A % | 19.2 ± 0.48 | -15.2 | 1.65 ± 0.49 ^A % | 62.5 | 4.89 ± 0.32 | – | – | 9.22 ± 0.19 | Ki (hMAO-B [8]; [12]): 2.69 µM; Inhibition type hMAO-B (hMAO-B [8]; [13]): noncompetitive; Ki (hMAO-A [9]; [12]): 5.18 µM; Inhibition type hMAO-A (hMAO-A [9]; [13]): noncompetitive; SI (selective index) (hMAO-A [9]; [10]): 1.89
Oc1cc(O)cc(O)c1 [Phloroglucinol, phloroglucinol] | – | −9.95 ± 14.50 ^C % | -7.05 | −0.85 ± 0.21 ^C % | -8.05 | −0.80 ± 0.57 ^C % | 13.9 | −6.05 ± 0.78 ^B % | -21.6 | −0.15 ± 14.07 ^C % | 4.95 | 0.20 ± 3.82 ^A % | – | -6.75 | 0.10 ± 0.28 ^B % | -4.15 | > 900 | no inhibitory activity | no inhibitory activity | > 900 | EC50, dopamine D4 agonist effect (hD4 (DRD4); [15]): No activity; EC50, dopamine D3 agonist effect (hD3 (DRD3) [2]; [15]): No activity
